13 compounds from patent US8183296B2, “Pesticide phenyloxy substituted phenylamidine derivatives” (Bayer Cropscience AG, priority 2005, dated 2012) can be followed below.

Data set [1] in a line: logP by HPLC on reversed-phase column (C 18), EEC Directive 79/831 Annex V.A8. The format is physicochemical.
The subject of data set [2] is Puccinia recondita f. Sp. tritici. Put plainly: In vivo preventive test on Puccinia recondita f. Sp. tritici (wheat brown rust). The note with it: topical, 240 h, 1000 ppm of active ingredient, evaluated 10 days after inoculation, read-out: efficacy. How it is done:
In Vivo Preventive Test on Puccinia recondita f. Sp. tritici (Wheat Brown Rust)
(§1) To produce a suitable preparation of active compound, 1 part by weight of active compound is mixed with the stated amounts of solvent and emulsifier, and the concentrate is diluted with water to the desired concentration.
To test for preventive activity, young plants are […]. After the spray coating has dried on, the plants are sprayed with the preparation of active compound at the stated rate of application. The plants remain for 24 hours in an incubation cabinet at 20° C. and a relative atmospheric humidity of 100%.
The plants are placed in a greenhouse at a temperature of approximately 20° C. and a relative atmospheric humidity of approximately 80% to promote the development of rust pustules.
The test is evaluated 10 days after the inoculation. 0% means an efficacy which corresponds to that of the control, while an efficacy of 100% means that no disease is observed.

The next data set deals with Alternaria solani. Put plainly: In vivo protective test on Alternaria solani (leaf spot of tomato). Particulars: topical, 168 h, 500 ppm of active ingredient, evaluated 7 days after inoculation, read-out: efficacy. How it is done: In Vivo Protective Test on Alternaria solani (Leaf Spot of Tomato)
as §1
To test for protective activity, young plants are sprayed with the preparation of active compound at the stated rate of application. After the spray coating has dried on, the plants are inoculated with an aqueous spore suspension of Alternatia solani. The plants remain for one day in an incubation cabinet at approximately 20° C. and a relative atmospheric humidity of 100%. Then the plants are placed in an incubation cabinet at approximately 20° C. and a relative atmospheric humidity of 96%.
The test is evaluated 7 days after the inoculation. 0% means an efficacy which corresponds to that of the control while an efficacy of 100% means that no disease is observed.

The next data set has as its system Sphaerotheca fuliginea. Briefly: In vivo protective test on Sphaerotheca fuliginea (cucumbers). The note with it: Podosphaera fuliginea, topical, 168 h, 100 ppm of active ingredient, evaluated 7 days after inoculation, read-out: efficacy. How it is done:
In Vivo Protective Test on Sahaerotheca fuliginea (Cucumbers)
as §1
To test for protect activity, young plants are sprayed with the preparation of active compound at the stated rate of application. After the spray coating has dried on, the plants are inoculated with an aqueous spore suspension of Sphaerotheca fuliginea. The plants are then placed in a greenhouse at approximately 23° C. and a relative atmospheric humidity of approximately 70%.
(§2) The test is evaluated 7 days after the inoculation. 0% means an efficacy which corresponds to that of the control, while an efficacy of 100% means that no disease is observed.

A further data set has as its system Aedes aegypti larvae. Briefly: In vivo protective test on Aedes aegypti (AEDSAE U). On the procedure: In Vivo Protective Test on Aedes Aegypti (AEDSAE U)
To produce a suitable preparation of the active compound, the active compound is mixed with the stated amount of solvent, and the concentrate is diluted with staining water to the desired concentration.
Aedes aegypti larvae are pipetted with a preparation of active ingredient of the desired concentration.
After the specified period of time, mortality in % is determined. 100% means that all larvae have been killed, a 0% means that none of the larvae have been killed.

Data set [3] in a line: logP by HPLC on reversed-phase column (C 18), EEC Directive 79/831 Annex V.A8. The format is physicochemical. The note with it: reversed-phase HPLC column (C 18), C 18, 40° C., 0.1% aqueous formic acid and acetonitrile, read-out: logPa. On the procedure:
Temperature: 40° C.; Mobile phases: 0.1% aqueous formic acid and acetonitrile; linear gradient from 10% acetonitrile to 90% acetonitrile.
Calibration was carried out using unbranched alkan-2-ones (comprising 3 to 16 carbon atoms) with known logP values (determination of the logP values by the retention times using linear interpolation between two successive alkanones).

For data set [4], the system named is Erysiphe graminis f.sp. hordei. Briefly: In vivo preventive test on Erysiphe graminis (powdery mildew on barley). Particulars: Blumeria graminis, topical, 168 h, 1000 ppm of active ingredient, evaluated 7 days after inoculation, read-out: efficacy. On the procedure: In Vivo Preventive Test on Erysiphe gramini (Powdery Mildew on Barley)
To produce a suitable preparation of active compound, 1 part by weight of active compound or active compound combination is mixed with the stated amounts of solvent and emulsifier, and the concentrate is diluted with water to the desired concentration.
To test for preventive activity, young plants are sprayed with the preparation of active compound or active compound combination at the stated rate of application.
After the spray coating has dried on, the plants are dusted with spores of Erysiphe graminis f.sp. hordei
The plants are placed in a greenhouse at a temperature of approximately 20° C. and a relative atmospheric humidity of approximately 80% to promote the development of mildew pustules.
as §2

In another data set the test system is Podosphaera leucotricha. Briefly: In vivo protective test on Podosphaera leucotricha (apples). The note with it: topical, 240 h, 100 ppm of active ingredient, evaluated 10 days after inoculation, read-out: efficacy. An excerpt:
In Vivo Protective Test on Podosphaera leucotricha (Apples) [table] […] To test for protective activity, young plants are sprayed with the preparation of active compound at the stated rate of application. After the spray coating has dried on, the plants are inoculated with an aqueous spore suspension of the causal agent of apple mildew (Podosphaera leucotricha).

The subject of data set [5] is eggs of cotton bollworm (Heliothis virescens). Briefly: In vivo protective test on Heliothis virescens (HELIVI U). Particulars: soybean leaf sections infested with Heliothis virescens eggs. An excerpt:
In Vivo Protective Test on Heliothis virescens (HELIVI U)
To produce a suitable preparation of the active compound, 1 part by weight of active compound is mixed with the stated amount of solvent and emulsifier, and the concentrate is dilutes with emulsifier-containing water to the desired concentration.
Soybean (Glycine max.) leaf sections are sprayed with a preparation of the active ingredient of the desired concentration. Once dry, the leaf sections are infested with eggs of cotton bollworm (Heliotis virescens).
After the specified period of time, mortality in % is determined. 100% means that all eggs have been killed and 0% means that none of the eggs have been killed.

The subject of data set [6] is mosquito larvae (Aedes aegypti). Briefly: In vivo protective test on Aedes aegypti (AEDSAE MO). Particulars: Aedes aegypti third larvae. How it is done: In Vivo Protective Test on Aedes aegypti (AEDSAE MO)
To produce a suitable preparation of active compound, 1 part by weight of active compound is mixed with the stated amount of solvent, and the concentrate is diluted with water to the desired concentration.
10 to 20 third mosquito larvae (Aedes aegypti) are added to the well and incubated.
After the specified period of time, mortality in % is determined. 100% means that all of the larvae have been killed; 0% means that none of the larvae have been killed.

With `Cc1cc(Oc2ccc(Cl)c(C(C)(C)C)c2)c(Cl)cc1N` [4-(3-t-butyl-4-chlorohenoxy)-5-chloro-2-methylaniline], the “log P (pH 2.3)” value in data set [1] worked out at 5.68.

`Cc1cc([N+](=O)[O-])c(C)cc1Oc1ccc(Cl)c(C(C)(C)C)c1` [4-(3-t-butyl-4-chlorphenoxy)-2,5-dimethylnitrobenzene]: the “log P (pH 2.3)” value in data set [1] is listed as 6.32.

With `Cc1cc(Oc2ccc(Cl)c(C(C)(C)C)c2)c(C)cc1N` [4-(3-t-butyl-4-chlorphenoxy)-2,5-xylidine], the “log P (pH 2.3)” value in data set [1] was 4.38.

Turning to `Cc1cc(Oc2ccc(Cl)c(C(C)(C)C)c2)c(Cl)cc1[N+](=O)[O-]` [4-(3-t-butyl-4-chlorphenoxy)-5-chloro-2-methylnitrobenzene], the “log P (pH 2.3)” value in [1] is on record as 6.32.

Regarding `CCN(C)C=Nc1cc(Cl)c(Oc2ccc(Cl)c(C(C)(C)C)c2)cc1C` [Example 1, N-Ethyl-N-methyl-N′-[4-(3-t-butyl-4-chlorphenoxy)-5-chloro-2-methylphenyl]formamidine], in data set [1], the “log P (pH 2.3)” value is recorded as 2.80.

Take `CCN(C)C=Nc1cc(C)c(Oc2ccc(Cl)c(C(C)(C)C)c2)cc1C` [Example 2, N-Ethyl-N-methyl-N′-[4-(3-t-butyl-4-chlorphenoxy)-2,5-xylyl]formamidine]: the “log P (pH 2.3)” value in [1] was 3.04.

Take `CCN(C)/C=N/c1cc(C)c(Oc2ccc(Cl)c(C(C)C)c2)cc1C` [Example 3]: the pest or weed control at 1000 ppm in data set [2] and in data set [4] was not below 70% each time. The pest or weed control at 500 ppm in the data set on Alternaria solani is not below 70%. Besides, the pest or weed control at 100 ppm in the data set with Sphaerotheca fuliginea and in the data set on Podosphaera leucotricha was not below 70% throughout. The “activity (mortality of larvae)” value with Aedes aegypti larvae is listed as “good activity”. Further, the chromatographic logP in data set [3] is 2.75.

As for `Cc1cc(Oc2ccc(Br)c(C(C)C)c2)c(C)cc1/N=C/N(C)C(C)C` [Example 18], the pest or weed control at 1000 ppm in [2] and in [4] was not below 70% in each case. Also, the “activity (mortality of eggs)” value in [5] is listed as “good activity”. Moreover, the pest or weed control at 500 ppm in the data set on Alternaria solani is not below 70%. The pest or weed control at 100 ppm in the data set with Sphaerotheca fuliginea and in the data set with Podosphaera leucotricha was not below 70% each time. Besides, the chromatographic logP in [3] was 3.34. The “activity (mortality of larvae)” value in [6] is “good activity”.

Take `CCCN(C)/C=N/c1cc(Cl)c(Oc2ccc(Cl)c(C(C)(C)C)c2)cc1C` [Example 25]: the pest or weed control at 1000 ppm in data set [2] and in data set [4] was not below 70% throughout. Also, in the data set with Alternaria solani, the pest or weed control at 500 ppm was not below 70%. Further, the pest or weed control at 100 ppm with Sphaerotheca fuliginea and in the data set with Podosphaera leucotricha was not below 70% in each case. The chromatographic logP in [3] was found to be 3.27.

With `CCN(C)/C=N/c1cc(Cl)c(Oc2ccc(Cl)c(C(C)(C)C)c2)cc1C` [Example 26], the pest or weed control at 1000 ppm in [2] and in data set [4] was not below 70% throughout. The pest or weed control at 500 ppm in the data set with Alternaria solani is not below 70%. For the same compound, the pest or weed control at 100 ppm in the data set with Sphaerotheca fuliginea and in the data set on Podosphaera leucotricha was not below 70% throughout. The chromatographic logP in data set [3] was found to be 3.02.

On to `Cc1cc(Oc2ccc(Cl)c(C(C)C)c2)c(C)cc1/N=C/N(C)C(C)C` [Example 28], for which the pest or weed control at 1000 ppm in [2] and in [4] was not below 70% each time. In the data set with Alternaria solani, the pest or weed control at 500 ppm was not below 70%. Further, the pest or weed control at 100 ppm with Sphaerotheca fuliginea and in the data set on Podosphaera leucotricha was not below 70% throughout. Also, in data set [3], the chromatographic logP is 2.74.

Consider `CCN(C)/C=N/c1cc(Cl)c(Oc2ccc(Br)c(C(C)C)c2)cc1C` [Example 30], for which the pest or weed control at 1000 ppm in data set [2] and in [4] was not below 70% throughout. Moreover, in the data set on Alternaria solani, the pest or weed control at 500 ppm is not below 70%. In addition, the pest or weed control at 100 ppm with Sphaerotheca fuliginea and with Podosphaera leucotricha was not below 70% each time. Moreover, the chromatographic logP in [3] amounted to 2.84.

Take `CCc1cc(Oc2cc(C)c(/N=C/N(C)C(C)C)cc2C)ccc1Cl` [Example 32]: the pest or weed control at 1000 ppm in [2] and in data set [4] was not below 70% each time. Moreover, the pest or weed control at 500 ppm with Alternaria solani was not below 70%. For the same compound, the pest or weed control at 100 ppm with Sphaerotheca fuliginea and in the data set on Podosphaera leucotricha was not below 70% each time. Further, the chromatographic logP in data set [3] is 2.75.
